biological target: GABAB receptor (Homo sapiens, UniProt Q9UBS5); test: GABAB receptor agonist or partial agonist activity by binding, electrophysiology, cAMP and/or Ca2+ assay methods (Examples 83-86); type: cell-based
Procedure: An assay using rat cerebral cortex membranes was used to determine the affinity of GABAB receptor ligands for the GABAB receptor.
An assay buffer of 50 mM Tris pH 7.4 was prepared with 100 μM of isoguvacine, to block GABAA interactions. The assay buffer with isoguvacine was used for dilution of membranes, compounds, and radiolabel.
Rat cerebral cortex membranes were diluted in assay buffer at 1 mg/mL and aliquoted into a 96-well plate at 900 μL/well. Buffer or test compound were added at 20-times final concentration in the buffer at 50 μL/well. Membranes and test compounds or buffer were incubated for 10 min. at room temperature. Radiolableled [S—(R*,R*)]-[3-[[1-(3,4-dichlorophenyl)ethyl]amino]-2-hydroxypropyl](cyclohexylmethyl) phosphinic acid (CGP54626) was then added at 50 μL/well in the buffer at 1-10 nM concentration in 50 μl. […] The assay mixture was filtered using Brandell filtration apparatus and GFB filters, washed twice with 3 mL of 4° C., 50 mM Tris pH 7.4, buffer without isoguvacine. The filters were then dried at room temperature and the dried filters punched out and placed in individual vials. Three (3) mL of scintillation fluid was added to each vial and the radiolabel counted on the scintillation counter. The inverse amount of radiolabel was indicative of binding of a test compound to the GABAB receptor.
The following procedure was used to determine the level of intracellular cAMP. Recombinant HEK cells expressing the GABAB R1a2 receptor were used in the experiments. cAMP levels were measured using a cAMP XS^+ HitHunter™ Chemiluminescence Assay Kit (90-0075-02, GE Healthcare Biosciences Corp.). Cells were seeded overnight at 5,000 cells per well, in black, clear bottom 96-well plates. The following morning, cells were washed twice with 100 μL PBS per well. Forskolin was weighed out and dissolved in DMSO to a final concentration 100 mM. One-hundred (100) μM forskolin solutions were prepared in PBS with and without test compound at 1-times final concentration. Thirty (30) μL of the test solutions were added to the wells and incubated for 1 h at room temperature. The cAMP concentration was determined according to the protocol described in the cAMP assay kit, maintaining the plate at room temperature and in the dark. […] Each well was read for 6 seconds. The untransformed data was then analyzed.
The following procedure was used to determine the GABAB receptor agonist activity of a compound as reflected by activation of Ca^2+ signaling. HEK TREx cells expressing GABABR1a2 under tetracycline induction control, and Gqi chimeric protein (expressed constitutively), allowing GABABR coupling through the Ca^2+ signaling pathway were used in the experiments.
Cells were seeded in media containing tetracycline overnight at 100,000 cells/well, in black, clear-bottom, 96-well plates. The following morning, cells were washed twice with 100 μL HBSS buffer per well. Fluorescent Ca^2+ indicator dye was prepared using the materials and procedure described in the F362056 Fluo-4 NW Calcium Assay Kit (Invitrogen, Carlsbad, Calif.). Ten (10) mL of kit buffer and 100 μl of kit Probenecid were added to individual kit dye vials, and rolled back and forth several times to dissolve the dye. Cells were then loaded into the dye solution at 50 μL per well. The cells and dye were incubated for 30 min at 37° C., and then incubated for an additional 30 min at room temperature in the dark. Test compounds are dissolved in HBSS buffer at twice final concentration. Duplicate wells were used for each unique condition. Solution containing the test compound was added to the wells using a FLEXStation II (Molecular Devices, Sunnyvale, Calif.). Using the instrument in kinetic mode in which each well was read every 2 sec over a total collection time of 50 sec fluorescence was measured using an excitation wavelength 494 nm and a detection wavelength of 516 nm. A normalized fluorescence value for each well was calculated using the following procedure.

Chain of GABAB receptor (Q9UBS5 20-961): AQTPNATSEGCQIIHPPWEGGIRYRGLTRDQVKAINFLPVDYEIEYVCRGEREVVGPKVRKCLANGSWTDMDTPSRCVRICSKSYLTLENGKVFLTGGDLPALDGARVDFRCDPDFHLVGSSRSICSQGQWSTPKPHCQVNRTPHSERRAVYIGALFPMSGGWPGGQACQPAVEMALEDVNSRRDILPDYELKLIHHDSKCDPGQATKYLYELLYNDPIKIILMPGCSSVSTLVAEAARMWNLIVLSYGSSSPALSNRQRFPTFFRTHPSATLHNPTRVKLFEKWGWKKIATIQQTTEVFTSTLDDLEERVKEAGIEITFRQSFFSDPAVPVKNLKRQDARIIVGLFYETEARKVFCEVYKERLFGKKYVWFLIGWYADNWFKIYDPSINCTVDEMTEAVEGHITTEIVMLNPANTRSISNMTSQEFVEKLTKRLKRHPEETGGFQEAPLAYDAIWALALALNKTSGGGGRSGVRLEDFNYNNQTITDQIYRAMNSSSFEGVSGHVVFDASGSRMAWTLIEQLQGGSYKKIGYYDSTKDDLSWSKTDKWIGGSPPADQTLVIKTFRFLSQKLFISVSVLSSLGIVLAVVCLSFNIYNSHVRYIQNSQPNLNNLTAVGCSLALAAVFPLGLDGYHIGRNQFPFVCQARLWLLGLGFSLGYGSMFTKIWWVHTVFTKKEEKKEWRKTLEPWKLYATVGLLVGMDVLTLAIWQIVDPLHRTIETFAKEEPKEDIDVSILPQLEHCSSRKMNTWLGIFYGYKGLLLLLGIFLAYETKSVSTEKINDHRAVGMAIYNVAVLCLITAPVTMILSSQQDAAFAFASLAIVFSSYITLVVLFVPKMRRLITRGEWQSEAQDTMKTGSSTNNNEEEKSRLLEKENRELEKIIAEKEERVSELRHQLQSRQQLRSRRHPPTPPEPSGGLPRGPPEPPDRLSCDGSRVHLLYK
Chain of GABAB receptor (O75899 42-941 partner): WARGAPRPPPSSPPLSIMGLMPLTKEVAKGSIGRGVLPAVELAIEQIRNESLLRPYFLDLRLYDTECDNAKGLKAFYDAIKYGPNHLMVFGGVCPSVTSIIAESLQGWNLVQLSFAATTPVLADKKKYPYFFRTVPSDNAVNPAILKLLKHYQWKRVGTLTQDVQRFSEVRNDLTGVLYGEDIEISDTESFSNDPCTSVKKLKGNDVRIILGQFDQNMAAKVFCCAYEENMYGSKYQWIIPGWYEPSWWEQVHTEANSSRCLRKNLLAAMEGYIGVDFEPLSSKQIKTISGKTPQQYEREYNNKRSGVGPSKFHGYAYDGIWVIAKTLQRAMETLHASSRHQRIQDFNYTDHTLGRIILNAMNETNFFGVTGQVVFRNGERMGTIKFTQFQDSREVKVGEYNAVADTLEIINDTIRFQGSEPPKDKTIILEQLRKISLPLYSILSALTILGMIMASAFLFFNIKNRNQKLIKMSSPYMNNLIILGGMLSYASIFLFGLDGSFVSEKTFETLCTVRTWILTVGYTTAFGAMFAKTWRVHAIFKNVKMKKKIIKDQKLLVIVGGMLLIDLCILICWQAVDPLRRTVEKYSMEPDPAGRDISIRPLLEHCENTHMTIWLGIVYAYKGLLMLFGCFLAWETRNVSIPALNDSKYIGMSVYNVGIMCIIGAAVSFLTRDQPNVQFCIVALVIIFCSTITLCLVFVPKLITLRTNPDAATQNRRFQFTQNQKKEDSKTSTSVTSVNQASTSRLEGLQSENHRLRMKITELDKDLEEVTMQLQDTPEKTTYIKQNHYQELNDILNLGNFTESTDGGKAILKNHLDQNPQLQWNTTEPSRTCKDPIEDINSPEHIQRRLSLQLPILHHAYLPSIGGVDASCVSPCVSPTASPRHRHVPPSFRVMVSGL

GABAB receptor agonist or partial agonist activity	Structure (SMILES)
agonist or partial agonist activity	NC[C@H](CC(=O)O)c1ccc(Cl)c(CCCC(=O)O)c1 [4-{5-[(1R)-2-amino-1-(carboxymethyl)ethyl]-2-chlorophenyl}butanoic acid]
agonist or partial agonist activity	Cl.NC[C@H](CC(=O)O)c1ccc(Cl)c(-c2ccc(C(=O)O)nc2)c1 [5-{5-[(1R)-2-amino-1-(carboxymethyl)ethyl]-2-chlorophenyl}pyridine-2-carboxylic acid hydrochloride]
agonist or partial agonist activity	Cl.NC[C@H](CC(=O)O)c1ccc(Cl)c(-c2cccc(C(=O)O)n2)c1 [6-{5-[(1R)-2-amino-1-(carboxymethyl)ethyl]-2-chlorophenyl}pyridine-2-carboxylic acid hydrochloride]
agonist or partial agonist activity	Cl.NC[C@H](CC(=O)O)c1ccc(Cl)c(-c2cncc3ccccc23)c1 [(3R)-4-amino-3-(4-chloro-3-(4-isoquinolyl)phenyl)butanoic acid hydrochloride]
agonist or partial agonist activity	Cl.NC[C@H](CC(=O)O)c1ccc(Cl)c(-c2ccncc2)c1 [(3R)-4-amino-3-(4-chloro-3-(4-pyridyl)phenyl)butanoic acid hydrochloride]
agonist or partial agonist activity	Cl.NC[C@H](CC(=O)O)c1ccc(Cl)c(Oc2ccncc2)c1 [(3R)-4-amino-3-(4-chloro-3-(4-pyridyloxy)phenyl)butanoic acid hydrochloride]
agonist or partial agonist activity	Cl.N#Cc1ccccc1CNc1cc([C@H](CN)CC(=O)O)ccc1Cl [(3R)-4-amino-3-(4-chloro-3-{[(2-cyanophenyl)methyl]amino}phenyl)butanoic acid hydrochloride]
agonist or partial agonist activity	Cl.NC[C@H](CC(=O)O)c1ccc(Cl)c(NCc2ccncc2Cl)c1 [(3R)-4-amino-3-(4-chloro-3-{[(3-chloro(4-pyridyl))methyl]amino}phenyl)butanoic acid hydrochloride]
agonist or partial agonist activity	Cl.NC[C@H](CC(=O)O)c1ccc(Cl)c(NCc2cccc(F)c2)c1 [(3R)-4-amino-3-(4-chloro-3-{[(3-fluorophenyl)methyl]amino}phenyl)butanoic acid hydrochloride]
agonist or partial agonist activity	Cl.NC[C@H](CC(=O)O)c1ccc(Cl)c(NCc2ccc(F)cc2)c1 [(3R)-4-amino-3-(4-chloro-3-{[(4-fluorophenyl)methyl]amino}phenyl)butanoic acid hydrochloride]
agonist or partial agonist activity	Cc1ccc(CNc2cc([C@H](CN)CC(=O)O)ccc2Cl)cc1.Cl [(3R)-4-amino-3-(4-chloro-3-{[(4-methylphenyl)methyl]amino}phenyl)butanoic acid hydrochloride]
agonist or partial agonist activity	Cl.NC[C@H](CC(=O)O)c1ccc(Cl)c(NCc2ccc([N+](=O)[O-])cc2)c1 [(3R)-4-amino-3-(4-chloro-3-{[(4-nitrophenyl)methyl]amino}phenyl)butanoic acid hydrochloride]

The remaining lines, values behind:

Structure (SMILES)	GABAB receptor agonist or partial agonist activity
Cl.NC[C@H](CC(=O)O)c1ccc(Cl)c(-c2ccccc2C(=O)O)c1 [2-{5-[(1R)-2-amino-1-(carboxymethyl)ethyl]-2-chlorophenyl}benzoic acid hydrochloride]	agonist or partial agonist activity
Cl.NC[C@H](CC(=O)O)c1ccc(Cl)c(/C=C/c2cccc(C(=O)O)c2)c1 [3-((1E)-2-{5-[(1R)-2-amino-1-(carboxymethyl)ethyl]-2-chlorophenyl}vinyl)benzoic acid hydrochloride]	agonist or partial agonist activity
Cl.NC[C@H](CC(=O)O)c1ccc(Cl)c(OCc2cccc(C(=O)O)c2)c1 [3-({5-[(1R)-2-amino-1-(carboxymethyl)ethyl]-2-chlorophenoxy}methyl)benzoic acid hydrochloride]	agonist or partial agonist activity
Cl.NC[C@H](CC(=O)O)c1ccc(Cl)cc1/C=C/c1ccccc1 [3-[2-((1E)-2-phenylvinyl)-4-chlorophenyl](3R)-4-aminobutanoic acid hydrochloride]	agonist or partial agonist activity
Cl.NC[C@H](CC(=O)O)c1ccc(Cl)c(/C=C/c2ccccn2)c1 [3-[3-((1E)-2-(2-pyridyl)vinyl)-4-chlorophenyl](3R)-4-aminobutanoic acid hydrochloride]	agonist or partial agonist activity
Cl.NC[C@H](CC(=O)O)c1ccc(Cl)c(NCc2cccc(C(=O)O)c2)c1 [3-[({5-[(1R)-2-amino-1-(carboxymethyl)ethyl]-2-chlorophenyl}amino)methyl]benzoic acid hydrochloride]	agonist or partial agonist activity
Cl.NC[C@H](CC(=O)O)c1ccc(Cl)cc1-c1cccc(C(=O)O)c1 [3-{2-[(1R)-2-amino-1-(carboxymethyl)ethyl]-5-chlorophenyl}benzoic acid hydrochloride]	agonist or partial agonist activity
Cl.N#Cc1ccc(C(=O)O)cc1-c1cc([C@H](CN)CC(=O)O)ccc1Cl [3-{5-[(1R)-2-amino-1-(carboxymethyl)ethyl]-2-chlorophenyl}-4-cyanobenzoic acid hydrochloride]	agonist or partial agonist activity
Cc1ccc(C(=O)O)cc1-c1cc([C@H](CN)CC(=O)O)ccc1Cl.Cl [3-{5-[(1R)-2-amino-1-(carboxymethyl)ethyl]-2-chlorophenyl}-4-methylbenzoic acid hydrochloride]	agonist or partial agonist activity
Cl.NC[C@H](CC(=O)O)c1ccc(Cl)c(-c2cnccc2C(=O)O)c1 [3-{5-[(1R)-2-amino-1-(carboxymethyl)ethyl]-2-chlorophenyl}pyridine-4-carboxylic acid hydrochloride]	agonist or partial agonist activity
NC[C@H](CC(=O)O)c1cc(Br)c(Cl)c(-c2cc(Cl)cc(C(=O)O)c2)c1 [3-{5-[(1R)-2-amino-1-(carboxymethyl)ethyl]-3-bromo-2-chlorophenyl}-5-chlorobenzoic acid]	agonist or partial agonist activity
Cl.NC[C@H](CC(=O)O)c1cc(Br)c(Cl)c(-c2cccc(C(=O)O)c2)c1 [3-{5-[(1R)-2-amino-1-(carboxymethyl)ethyl]-3-bromo-2-chlorophenyl}benzoic acid hydrochloride]	agonist or partial agonist activity
Cl.NC[C@@H](CC(=O)O)c1ccc(Cl)c(-c2cccc(C(=O)O)c2)c1 [3-{5-[(1S)-2-amino-1-(carboxymethyl)ethyl]-2-chlorophenyl}benzoic acid hydrochloride]	agonist or partial agonist activity
Cl.NC[C@H](CC(=O)O)c1ccc(Cl)c(Cc2ccc(C(=O)O)cc2)c1 [4-({5-[(1R)-2-amino-1-(carboxymethyl)ethyl]-2-chlorophenyl}methyl)benzoic acid hydrochloride]	agonist or partial agonist activity
COc1cncc(-c2cc(C(CN)CC(=O)O)ccc2Cl)c1.Cl (stereo not drawn) [4-amino-3-[4-chloro-3-(5-methoxy(3-pyridyl))phenyl]butanoic acid hydrochloride]	agonist or partial agonist activity

Source: patent US8344028B2, “Gamma-amino-butyric acid derivatives as GABAB receptor ligands” (XenoPort, Inc., priority 2009, dated 2013)
